# Test results taken from patent publication US8084459B2, “Substituted quinazolinones for treating neurological conditions” (Prana Biotechnology Ltd, priority 2004, dated 2011).
# Where “and” joins values, the source holds several entries; their conditions need not be identical. Identical values can stand only once.
# How the values were obtained:
# Aβ plaques = assay: Assay 14 transgenic mouse brain immunohistochemistry (plaque score); format: in vivo; conditions: APP2576 mice
# Text: Assay 14. Transgenic Mouse Brain Immunohistochemistry
# The APP2576 transgenic mouse (Hsiao et al., 1996) as referred to in Assay 11 is utilized in this assay. The contralateral formalin-fixed mouse brain tissue is coronally cut. Sections (10 μm) are taken from the corresponding sites and treated with 80% formic acid for antigen retrieval. The primary antibody used is monoclonal antibody 1E8, which recognizes epitopes between residues 18 and 22 of Aβ (SmithKline Beecham, UK). Immunoreactivity is developed with secondary antibody linked to horseradish peroxidase (using a 3,39-diaminobenzidinechromagen) (Dako) and alkaline phosphatase (using 5-bromo-4-chloro 3-indoxyl phosphate and nitroblue tetrazolium chloride chromagen) (Dako). Plaque abundance per section is assessed by two operators blinded to treatment according to the following scale:
# 1=plaques present but very sparse
# 2=several plaques present
# 3=numerous plaques visible in restricted areas
# 4=plaques abundant and not restricted to any particular area.
# Intermediate values eg 2.5 are assigned where applicable. Students ‘t’ test is used for comparisons between groups.
# [1] = system: soluble and insoluble Aβ in the brain; assay: Assay 11 effect on Aβ deposits in transgenic animals (soluble and insoluble Aβ, Western blot); format: in vivo, APP2576 transgenic mouse; conditions: APP2576 mice
# [2] = Assay 16 mouse plasma levels of test compounds; format: in vivo; conditions: for Conc. in mouse plasma: listed as PB 1076, 30 mg/kg
# Experimental: Assay 16. Determination of Mouse Plasma Levels of Test Compounds PB 1075
# (§1) Oral administration of PB 1075 at 30 mg/kg, as a suspension in Na-Carboxymethyl Cellulose (CMC) was administered by oral gavage to four mice. Two mice were sacrificed 30 minutes after administration and two mice were sacrificed 60 minutes after administration. Blood was obtained by cardiac puncture and plasma separated by centrifugation.
# The concentration of PB 1075 was determined by LC/MS using the triple quadrupole instrument. The mobile phase consisted of an acetonitrile (ACN)/water gradient (containing 0.05% Formic acid) and the column was a Phenomenex Lunea 5 um C8 (50×2 mm) column.
# The supplied acute toxicity mouse plasma samples were directly injected following a protein precipitation with ACN. The analytical method in plasma was linear in the range of 10 to 10,000 ng/ml (R^2=0.994). Recovery of PB 1075 from plasma was ˜100%.
# as §1, with “1076” for “1075”
# The concentration of PB 1076 was determined by LC/MS using the triple quadrupole instrument. The mobile phase consisted of an acetonitrile (ACN)/water gradient (containing 0.05% Formic acid) and the column was a Phenomenex Luna 5 μM C8 (50×2 mm) column.
# The mouse plasma samples were directly injected following a protein precipitation with ACN. The analytical method in plasma was linear in the range of 500 to 10,000 ng/ml (R^2=0.999). Recovery of PB 1076 from plasma was ˜85%.
# as §1, with “1077” for “1075”
# The concentration of PB 1077 was determined by LC/MS using the triple quadrupole instrument. The mobile phase consisted of an acetonitrile (ACN)/water gradient (containing 0.05% Formic acid) and the column was a Phenomenex Luna 5 μM C8 (50×2 mm) column.
# The mouse plasma samples were directly injected following a protein precipitation with ACN. The analytical method in plasma was linear in the range of 5 to 5,000 ng/ml (R^2=0.999). Recovery of PB 1077 from plasma was ˜92%.
# Aβ 1-42 = target: T1, Aβ 1-42 (Homo sapiens, UniProt P05067); assay: Assay 1 Fluorometric H2O2 assay (peroxide); format: biochemical; conditions: inhibition of H2O2 generation by Aβ with copper
# T1 construct: The reaction solutions contained Aβ 1-42 at concentrations
# Experimental: Assay 1. Fluorometric H2O2 Assay
# A fluorometric assay was used to test the ability of a test compound to inhibit hydrogen peroxide generation by Aβ in the presence of copper based on dichlorofluoroscein diacetate (DCF; Molecular Probes, Eugene Oreg.). The DCF solution (5 mM) in 100% dimethyl sulphoxide (previously purged with argon for 1 hr at 20° C.) was deacetylated in the presence of 0.025M NaOH for 30 min and neutralised at pH 7.4 to a final concentration of 1 mM. Horseradish peroxidase (HRP) stock solution was prepared to 1 μM at pH 7.4. The reactions were carried out in PBS, pH 7.4 in a 96 well plate (total volume=250 μl/well). The reaction solutions contained Aβ 1-42 at concentrations in the range of 50 nM to 1 μM, copper-glycine chelate (Cu-Gly), was prepared by adding CuCl2 to glycine in the ratio of 1:6 and added to the Aβ in the proportion 2Cu-Gly:1Aβ), reducing agents including dopamine (5 μM) or ascorbic acid, deacetylated DCF 100 μM, and HRP, 0.1 μM. 1-10 μM EDTA or another chelator may also be present as a control for free copper, but was not required for the assay to function. The reaction mixture was incubated at 37 C for 60 min. Catalase (4000 units/ml) and H2O2 (1-2.5 μM) standards in PBS pH 7.4 may be included as positive controls. Fluorescence was recorded using a plate reader with excitation and emission filters at […] respectively. H2O2 concentration may be established by comparing fluorescence with the H2O2 standards. Inhibition of Aβ H2O2 production was assayed by including a given concentration of test compound(s) in the test wells.
# [3] = target: T2, A-beta 1-42 aggregates formed by precipitation with zinc (Homo sapiens, UniProt P05067); assay: Assay 17 synthetic amyloid plaque disaggregation assay (thioflavin T); format: biochemical; conditions: for Assay 17 percentage disaggregation at 5 uM: 5 uM (printed as 5/%); for EC50: Aβ1-42/Zn/ThT aggregates, 2 hours, 37 degrees
# T2 construct: host or cells: chemically synthesised peptide
# Experimental: Assay 17. Synthetic Amyloid Plaque Disaggregation Assay
# This assay measures the ability of test compounds to dissolve aggregates of synthetic Alzheimer's A-beta 42 residue peptide formed by precipitation with zinc.
# The synthetic plaque disaggregation assay is a thioflavin T fluorescence-based assay which measures the ability of a test compound to disaggregate synthetic aggregates generated by the incubation of Alzheimer's amyloid A-beta protein (Aβ) in the presence of zinc.
# The 42 residue A-beta which is the form most prevalent in Alzheimer's amyloid plaques is precipitated by the addition of zinc salts to form a beta sheet conformational aggregate physicochemically congruent with the crystalline amyloid plaque cores. […] Solubilisation of the metal bound aggregates by a test compound will result in reduced fluorescence as the beta sheet conformation is lost. The activity of a compound in this assay is a combination of its metal chelating properties, solubility, hydrophobicity and structural elements which influence interaction with the amyloid mass.
# The assay models the process by which a test compound is acting, either to compete for bound metals with Aβ or alternatively to displace metals by competitively binding at the metal binding site, resulting in Aβ precipitated by zinc, being solubilised, as an in vitro model of plaque disaggregation.
# Aliquots of synthetic Aβ peptide are prepared for convenience. Aβ is dissolved in distilled H2O and peptide concentration is assessed by absorption at 214 nm against a validated standard curve. Abeta/Zn aggregates in the presence of solvent only (DMSO) and control vehicle (PBS) are included in each assay as negative controls. The test compounds were dissolved in DMSO to a concentration of 5 mM. Dilutions were made in DMSO as appropriate to 100 times the desired final concentration and added immediately to the A-beta aggregates.
# A-beta 1-42 is incubated with ZnCl2 and Thioflavine T (ThT) in a molar ratio of (1:2:2) for 24 hours at 37 degrees on a rotating wheel in PBS pH 6.6. Following incubation, aggregates are incubated with test drug for a further 2 hours at 37 degrees with rotation. PBS blank, untreated aggregates and DMSO controls are included with each experiment. After 2 hour incubation, samples are measured for ThT fluorescence using an LS55 (Perkin Elmer) fluorimeter in a cuvette.
# Data are generated in FL Winlab software (Perkin Elmer) and analysed using GraphPad Prism v4.0 software. Data are calculated as the average of multiple reads.
# The two values together provide a measure of the efficiency of disaggregation.
# [4] = Assay 3(d) test compound cytotoxicity (MTS); format: cell-based; conditions: BL6Jx129sv, mouse, primary cortical neuronal cultures, cortical neurons; for viability at 4 days, 1 µM: read-out: Assay 3(d) Cytotoxicity (% viable at 1 uM); for viability at 4 days, 10 µM: read-out: Assay 3(d) Cytotoxicity (% viable at 10 uM)
# Experimental: Primary Cortical Neuronal Cultures
# Cortical cultures were prepared as previously described (White et al., 1998). Embryonic day 14 BL6Jx129sv mouse cortices were removed, dissected free of meninges and dissociated in 0.025% (wt/vol) trypsin. Dissociated cells were plated in 48 well culture plates at a density of 2×10^6 cells/mL in MEM with 25% (vol/vol) FCS and 5% (vol/vol) HS and incubated at 37° C., 2 hrs. Media was then replaced with Neurobasal media (Invitrogen Life Technologies) and B27 supplements (Invitrogen Life Technologies). Cultures were maintained at 37° C. in 5% CO2. Prior to experimentation, the culture medium was replaced with Neurobasal media and B27 minus antioxidants (Invitrogen Life Technologies).
# (a) MTS Assay for Cell Viability
# Cell viability is determined using the MTS assay. Culture medium is replaced with fresh neurobasal medium plus B27 supplements minus antioxidants. 1/10 volume MTS solution (Cell Titre 96 Aqueous One, Promega Corporation) and incubated at 37° C., 2 hrs. 200 microlitre aliquots are measured with a spectrophotometer at 560 nm.
# (d) Assay for Test Compound Cytoxicity
# Neuronal cortical cells were cultured for five days as per Assay 2 in NB media and B27 supplement.
# On day six the test compounds were added to the neuronal cell cultures in NB media and B27 supplement minus antioxidants.
# Test compounds were dissolved in 100% DMSO to a concentration of 2.5 mM (10 mM if excess compound was weighed out per vial—then diluted to 2.5 mM). 2.5 mM stock solution was serially diluted 1 in 10 to give working solutions of 250 uM, 25 uM, 2.5 uM. Test compounds were not added directly to cells, instead they were added to a 48 well ‘Drug Plate’ as comprised below:
# Preparation of “Drug Plate”:
# • Well 1: 576 ul NB+B27 (no antioxidant)*+24 ul 2.5 uM test compound • Well 2: 576 ul NB+B27 (no antioxidant)+24 ul 25 uM test compound • Well 3: 576 ul NB+B27 (no antioxidant)+24 ul 250 uM test compound • Well 4: 576 ul NB+B27 (no antioxidant)+24 ul 2.5 uM test compound • Well 5: 576 ul NB+B27 (no antioxidant)+24 ul 25 uM test compound • Well 6: 576 ul NB+B27 (no antioxidant)+24 ul 250 uM test compound • Well 7: 576 ul NB+B27 (no antioxidant)+24 ul test compound diluent** • Well 8: 600 ul NB+B27 (no antioxidant)
# The Drug Plate was incubated at 37° C. for 15 mins. 200 ul of each well was added in triplicate to the corresponding cell plate. The cell plate was incubated at 37° C., for 4 days, (2 compounds are tested on each plate of cells).
# * NB media and B27 (no antioxidants),
# ** PBT diluent 10% DMSO in NB+B27 (no antioxidants)
# On completion of the assay, 1/10 volume MTS was added per well of plate (ie 25 ul/250 ul). The plates were incubated at 37° C. for 2 hrs, and then absorbance was read at 560 nm.
# T1 sequence (P05067 672-713 limits assumed): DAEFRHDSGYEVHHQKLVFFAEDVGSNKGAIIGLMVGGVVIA
# T2 sequence (P05067 672-713 limits assumed): as above
Structure (SMILES),Plaques score: average count score per treatment group relative to the vehicle (sham) treated group (Aβ plaques),Tg mice Insoluble Fraction: % change compared with vehicle alone control mice ([1]; insoluble Aβ),Tg mice Soluble Fraction: % change compared with vehicle alone control mice ([1]; soluble Aβ),"Conc. in mouse plasma ([2]; 30 min after oral dosing at 30 mg/kg, single mouse) [ng/mL]","Conc. in mouse plasma ([2]; 60 min after oral dosing at 30 mg/kg, single mouse)","Assay 16 Mice plasma concentration ([2]; highest level found in mice (Up to), oral dosing 30 mg/kg described for PB 1075-1077)","concentration at 30 min ([2]; mouse, plasma, po, 30 mg/kg, 30 min after oral dosing at 30 mg/kg, single mouse, read-out: Conc. in mouse plasma) [ng/mL]",IC50 (Aβ 1-42) [µM],Assay 17 percentage disaggregation at 5 uM [3],EC50 [3] [µM],"viability at 4 days, 1 µM [4] [%]","viability at 4 days, 10 µM [4] [%]",disaggregation (rating in words) [3]
Br.O=c1c2c(Cl)cc(Cl)c(O)c2ncn1CC1CC1 [Compound 1076],−29% (plaque),−21% (insol),−24% (sol),1593.61,1167.52 ng/mL and 2697.62 ng/mL,Up to 2698 ng/mL,2330,0.45,,,,,
Br.O=c1c2c(Cl)cc(Cl)c(O)c2ncn1Nc1ccc(F)cc1F [Compound 1100],,,,,,,,0.42,42%,17,100,92,
Br.O=c1c2c(Cl)cc(Cl)c(O)c2ncn1Cc1cccc(Cn2cnc3c(O)c(Cl)cc(Cl)c3c2=O)n1 [Compound 1101],,,,,,,,< 4.1,45 5/%,11.7,89,17,
CCN(CC)Cc1nc2c(O)c(Cl)cc(Cl)c2c(=O)[nH]1 [Compound 1128],,,,,,,,0.34,41 5/%,13.2,,,very good (A test compound able to achieve an IC50 at less than 20 μM and scoring greater than 40% disaggregation at 5 μM is considered ‘very good’)
O=c1c2c(Cl)ccc(O)c2ncn1CC1CC1 [Compound 1132],,,,,,,,,16 5/%,,,,
